What was measured:
Type in all cases: cell-based
cancer cells [1] = assay: PFU assay of adenovirus production
Excerpt: (§1) That is, ALA and Fe can enhance antitumor effect, because they can increase the infectivity of adenovirus to cancer cells and the amount of virus production within the cells.

cancer cells [2] = assay: β-gal assay of adenovirus infectivity
Excerpt: as §1

Ovarian cancer cells HEY = assay: Influence of Fe and ALA on the proliferation inhibitory effect of adenovirus AdE3-1A1.3B (FIG. 15-17)
Description: Ovarian cancer cells HEY were cultured in 12-well plate at a rate of 10,000 cells/well and FeSO4 was added at a concentration of 50 μg/ml, 5 μg/ml, 0.5 μg/ml or 0 μg/ml on the following day and the cytolysis type adenovirus AdE3-1A1.3B was added to all wells. The proliferation inhibitory effect of the adenovirus was evaluated by IC50 after five days.
(§2) Next, the ovarian cancer cell line HEY was cultured in a 12-well plate at a rate of 10,000 cells/well and 5-aminolevulinic acid (ALA) was added at a concentration of 50 μg/ml, 5 μg/ml, 0.5 μg/ml or 0 μg/ml on the following day and the cytolysis type adenovirus AdE3-1A1.3B was added to all wells. The proliferation inhibitory effect of the adenovirus was evaluated by IC50 after five days.
as §2, with “Furthermore,” for “Next,”, “FeSO4” for “5-aminolevulinic acid (ALA)”, “day. In addition,” for “day and”, “AdE3-1A1.3B and 50 μg/ml of 5-aminolevulinic acid (ALA) were added to each well. Only the adenovirus” for “AdE3-1A1.3B”, “a control.” for “all wells.”

Row | Compound | amount of adenovirus production (cancer cells [1]) | infectivity of adenovirus (cancer cells [2]) | proliferation inhibitory effect to that of only adenovirus administration (Ovarian cancer cells HEY; 50 μg/ml of ALA and AdE3-1A1.3B, IC50 (vp/cell) after five days) | proliferation inhibitory effect to that of only adenovirus administration (Ovarian cancer cells HEY; 0.5 μg/ml of FeSO4, 50 μg/ml of ALA and AdE3-1A1.3B, after five days) | proliferation inhibitory effect to that of only adenovirus administration (Ovarian cancer cells HEY; 5 μg/ml of FeSO4, 50 μg/ml of ALA and AdE3-1A1.3B, after five days) | proliferation inhibitory effect to that of only adenovirus administration (Ovarian cancer cells HEY; 5 μg/ml of FeSO4 and AdE3-1A1.3B, IC50 (vp/cell) after five days) | proliferation inhibitory effect to that of only adenovirus administration (Ovarian cancer cells HEY; 50 μg/ml of FeSO4, 50 μg/ml of ALA and AdE3-1A1.3B, after five days) | proliferation inhibitory effect to that of only adenovirus administration (Ovarian cancer cells HEY; 50 μg/ml of FeSO4 and AdE3-1A1.3B, IC50 (vp/cell) after five days)
1 | NCC(=O)CCC(=O)O [ALA, 5-aminolevulinic acid, reference compound] | increased amount of adenovirus production | increased infectivity of adenovirus | about 100 fold |  |  |  |  | 
2 | [Fe] [Fe] | increased amount of adenovirus production | increased infectivity of adenovirus |  |  |  |  |  | 
3 | ferrous sulfate [FeSO4] |  |  |  | about 200 fold | about 700 fold | about 8 fold | about 1,000 fold | about 20 fold
